Data: patent US4857516A, “Coumaran derivatives and their pharmaceutical use” (Takeda Chemical Industries, Ltd., priority 1986, dated 1989)

Legend:
5-lipoxygenase = target: T1, 5-lipoxygenase (Rattus norvegicus, UniProt P12527); experiment: Inhibition of 5-lipoxygenase (5-HETE production in RBL-1 cells); format: cell-based
T1 construct: endogenous in cells; host or cells: RBL-1 (rat basophilic leukemia cells)
T1 sequence (P12527 1-673): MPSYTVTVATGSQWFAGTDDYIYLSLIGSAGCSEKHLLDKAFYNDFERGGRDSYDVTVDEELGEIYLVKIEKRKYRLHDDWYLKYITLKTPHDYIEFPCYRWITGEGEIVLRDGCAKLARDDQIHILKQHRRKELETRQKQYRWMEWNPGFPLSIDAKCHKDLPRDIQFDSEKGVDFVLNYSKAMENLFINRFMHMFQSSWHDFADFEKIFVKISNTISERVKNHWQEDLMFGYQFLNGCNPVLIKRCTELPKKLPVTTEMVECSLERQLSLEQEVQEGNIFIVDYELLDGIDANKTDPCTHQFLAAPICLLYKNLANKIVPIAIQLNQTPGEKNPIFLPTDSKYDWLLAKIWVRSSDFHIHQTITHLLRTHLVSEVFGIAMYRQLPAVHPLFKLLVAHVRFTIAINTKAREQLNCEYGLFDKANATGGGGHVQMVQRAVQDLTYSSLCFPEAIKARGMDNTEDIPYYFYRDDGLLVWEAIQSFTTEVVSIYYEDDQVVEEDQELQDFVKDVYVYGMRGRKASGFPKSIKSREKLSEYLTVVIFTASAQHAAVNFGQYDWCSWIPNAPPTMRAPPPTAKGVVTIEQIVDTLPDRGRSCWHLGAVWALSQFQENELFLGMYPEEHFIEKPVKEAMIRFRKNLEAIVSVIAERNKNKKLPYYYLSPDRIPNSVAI
Protocol: 10^7 RBL-1 cells (rat basophilic leukemia cells) were suspended in 0.5 ml of MCM (mast cell medium). […] Then 4 ml of ethanol was added, and the mixture was well shaken and kept at room temperature for 10 min.
The mixture was centrifuged for 10 min. (2000 rpm), and the supernatant was separated. The supernatant obtained was concentrated to dryness under reduced pressure. To the residue 0.5 ml of 60 v/v % aqueous methanol was added. One hundred μl of this solution was subjected to high performance liquid chromatography for quantitative analysis of 5-HETE (5-hydroxyeicosatetraenoic acid). The amount of 5-HETE was determined by measurement of the absorbance at 237 nm with a UV absorption monitor.
The inhibitory effect (IE) of production of 5-HETE is expressed by (1-b/a)×100, wherein a is the peak height or the area corrected with the peak due to the internal standard in the absence of the compound (I) or a pharmaceutically acceptable salt thereof, and b is the peak height or peak area corrected with the peak due to the internal standard in the presence of the compound (I) or a pharmaceutically acceptable salt thereof.

[1] = tested on: generation of HHT in rat platelets; experiment: Inhibitory effect on the generation of 12-hydroxyheptadeca-5,8,10-trienoic acid (HHT) in rat platelets; format: cell-based; details: rat platelet rich plasma
Protocol: Blood was collected in 3.2 v/v % sodium citrate (0.8 ml for 7.2 ml of blood) from the abdominal aorta of male Wister rats (Jcl, 12 to 15 weeks) anesthesized with pentobarbital. Platelet rich plasma (PRP) was obtained by centrifuging the blood at 800 rpm for 10 min at room temperature. Platelet poor plasma (PPP) was prepared by centrifuging the remaining blood at 3,000 rpm for 10 min. The platelet concentration of PRP was adjusted to 1,000,000/μl with PPP. […]
The reaction was stopped by adding 100 ml of ethanol and the mixture was allowed to stand for 10 min. at room temperature. The reaction mixture was centrifuged at 2,000 rpm for 10 min. and the supernatant obtained was evaporated. To the concentrate, 0.2 ml of 60 v/v % aqueous ethanol was added.
100 μl of this solution was subjected to high performance liquid chromatography for quantitative analysis of HHT. The amount of HHT was determined by measurement of absorbance at 237 nm with a UV absorption monitor.
The inhibitory effect (IE) on the generation of HHT is expressed by (1-b/a)×100, wherein a is the peak height or the peak area corrected with the peak due to the internal standard in the absence of the compound (I) or a pharmaceutically acceptable salt thereof, and b is the peak height or the peak area corrected with the peak due to the internal standard in the compound (I) or a pharmaceutically acceptable salt thereof.

[2] = tested on: lipid peroxide production in rat brain homogenates; experiment: Inhibitory action on lipid peroxide production in rat brain homogenates; format: biochemical; details: 5 v/v % rat brain homogenate, pH 7.4, 1 hour at 37° C.; read-out: Inhibition (IC50) of lipid peroxide production
Protocol: The male SD rat (12 weeks) brain tissue was extracted under anesthesia after depletion. The extracted brain tissue was used as 5 v/v % homogenate in phosphate buffer (pH 7.4). After incubation of the homogenate for 1 hour at 37° C., the peroxide produced was determined by the thiobarbituric acid method according to the method described in Analytical Biochemistry, 95, 551 (1979).
Before incubation, test compounds were added in 5 v/v % homogenate so that their final concentration becomes 10^-5 M. […]

[3] = tested on: excitatory behavior induced by FeCl2 in mice; experiment: Excitatory behavior induced by spinal intrathecal injection of FeCl2 in mice; format: in vivo, mouse; details: 100 mg/kg p.o.; for Score (mean behavioral score): 30 min. prior to FeCl2, 0 normal to 5 death; for Percent inhibition (of mean score): vs vehicle p.o.
Protocol: Male Slc:ICP mice (5 weeks) were used. Each group consisted of 10 mice. 5 μl of 50 mM FeCl2 in saline was injected into spinal subarchnoid space betwen the 1st sacral and the 6th lumbar segment, the behavioral responses were observed from 15 min. to 1 hr. after the intrathecal injection of FeCl2 and scored as follows.
Score Behavioral responses
0: normal (no abnormal behavior)
1: vigorously biting lower abdomen or lower extremities
(a) extremely biting lower body with rolling
(b) hyperreactivity and agressive to external stmuli
at least one of above three behavioral changes were observed
4: tonic convulsion or paralysis of lower extremities.
The test compounds (100 mg/kg) were orally administered 30 min. prior to FeCl2 injection.

[4] = tested on: neurological deficits caused by spinal cord compression in rats; experiment: Functional neurologic impairment induced by spinal cord compression in rats; format: in vivo, rat; details: 40 mg/kg, p.o.
Description: (§1) Male Jcl:Wistar rats, weighing about 350 g at the time of spinal cord compression were used. A spinal cord injury was produced in rats by compressing the spinal cord with a stainless screw of 2.8 mm length and 2 mm diameter at thoracic 11 (T11) level under pentobarbital anesthesia. On the day of the operation, the screw was placed so that the end was just above the subarachnoid membrane of the spinal cord.
(§2) On the following day, the screw was completely tightened to compress the spinal cord without penetrating the subarachnoid membrane. After compression of the spinal cord for 60 min., the screw was removed. Test compounds were given orally 5 min. after the removal of screw.
0; flaccid paralysis, no movement of hind limbs, no response to pinching of tail with foreceps (i.e. movement of fore limbs, biting foreceps, vocalization)
1; no movement of hind limbs, but responds to pinching of tail with foreceps
2; uncoordinated movement (loss of coordination between limbs), but can not support own weight
3; movement with an impairment (general coordination between limbs), but can not support own weight
4; walking with a slight ataxia of the hind limbs, but can support own weight
(§3) The median neurological score of the drug-treated groups were compared with that saline-teated control group. Statistical analysis was done using the Mann-Whitney U-test. The incidence of rats showing urinary incontinence was also compared by the .chi.^2 -test.

[5] = tested on: urinary incontinence in rats with spinal cord compression; experiment: Incidence of rats showing urinary incontinence (spinal cord compression); format: in vivo, rat; parameters: Incidence of rats showing urinary incontinence: unit not given here; details: 40 mg/kg, p.o.
Description: as §1, §2, §3

[6] = day 3, Ex. 7 *p < 0.05, Ex. 20 **p < 0.01

## Cc1c(C)c2c(c(C)c1O)C(c1ccc(F)cc1)C(C)(C)O2 (centres unmarked) [Example 7, 3-(4-fluorophenyl)-5-hydroxy-2,2,4,6,7-pentamethyl-2,3-dihydrobenzofuran]
5-lipoxygenase; 10^-6 M
  inhibition at 1 µM: 99%
5-lipoxygenase; 10^-7 M
  inhibition at 0.1 µM: 43%
5-lipoxygenase; 10^-8 M
  inhibition at 0.01 µM: 13%
[1]; 10^-4 M
  inhibition at 100 µM: 49%
[1]; 10^-5 M
  inhibition at 10 µM: 35%
[2]
  IC50: 0.23 µM
[3]
  Score (mean behavioral score): 0.3
  Percent inhibition (of mean score): 93%
[4]; day 1, 0 flaccid paralysis to 5 normal gait, Ex. 20 **p < 0.01
  neurological score (median value): 2
[4]; [6]
  neurological score (median value): 2
[4]; day 7, Ex. 20 **p < 0.01
  neurological score (median value): 3
[4]; day 14, Ex. 20 *p < 0.05
  neurological score (median value): 4
[4]; Table 4(III)
  neurological impairment caused by spinal cord compression (in words): ameliorated the neurological impairment
[5]; day 1, Ex. 20 **p < 0.01
  Incidence of rats showing urinary incontinence: 42.9
[5]; day 2, Ex. 20 **p < 0.01
  Incidence of rats showing urinary incontinence: 14.3
[5]; [6]
  Incidence of rats showing urinary incontinence: 7.1
[5]; day 5, Ex. 20 **p < 0.01
  Incidence of rats showing urinary incontinence: 7.1
[5]; day 7, Ex. 7 *p < 0.05
  Incidence of rats showing urinary incontinence: 0
[5]; day 10
  Incidence of rats showing urinary incontinence: 0
[5]; day 14
  Incidence of rats showing urinary incontinence: 0
[5]; Table 4(IV)
  incidence of urinary incontinence (in words): reduced the incidence of urinary incontinence

## Cc1c(C)c2c(c(C)c1O)C(c1ccc(Br)cc1)C(C)(C)O2 (centres unmarked) [Example 11]
[3]
  Score (mean behavioral score): 0.7
  Percent inhibition (of mean score): 84%
